{"source": "patent US20120108947A1", "about": "“METHOD FOR PREDICTING WEIGHT GAIN ASSOCIATED WITH A PHARMACEUTICAL THERAPY” (priority 2009, published 2012)", "conditions": "in vivo", "method": "TRL V1, V2, V3, V4, V5 and V6 responses and VLDL size response are measured during each visit along with increases in weight. […] The relationship of the change in TRL V6 to the change in weight is analyzed using a mixed effects model analysis.", "data": [{"smiles": "Cc1cc2c(s1)Nc1ccccc1N=C2N1CCN(C)CC1", "note": "[olanzapine, 2-methyl-4-(4-methyl-1-piperazinyl)-10H-thieno[2,3-b][1,5]benzodiazepine]", "values": [{"measurement": "magnitude of the TRL V6 response and VLDL size response in comparison to pre-dose concentration", "value": "increases"}]}]}
